Active and inactive are the calls of the source. No cut-off for these calls is given here.
What was measured:
[1] = biological target: T1, Protein O-GlcNAcase (Homo sapiens) (UniProt O60502); assay: Inhibition of human OGA at 100 uM
T1 sequence (whole entry): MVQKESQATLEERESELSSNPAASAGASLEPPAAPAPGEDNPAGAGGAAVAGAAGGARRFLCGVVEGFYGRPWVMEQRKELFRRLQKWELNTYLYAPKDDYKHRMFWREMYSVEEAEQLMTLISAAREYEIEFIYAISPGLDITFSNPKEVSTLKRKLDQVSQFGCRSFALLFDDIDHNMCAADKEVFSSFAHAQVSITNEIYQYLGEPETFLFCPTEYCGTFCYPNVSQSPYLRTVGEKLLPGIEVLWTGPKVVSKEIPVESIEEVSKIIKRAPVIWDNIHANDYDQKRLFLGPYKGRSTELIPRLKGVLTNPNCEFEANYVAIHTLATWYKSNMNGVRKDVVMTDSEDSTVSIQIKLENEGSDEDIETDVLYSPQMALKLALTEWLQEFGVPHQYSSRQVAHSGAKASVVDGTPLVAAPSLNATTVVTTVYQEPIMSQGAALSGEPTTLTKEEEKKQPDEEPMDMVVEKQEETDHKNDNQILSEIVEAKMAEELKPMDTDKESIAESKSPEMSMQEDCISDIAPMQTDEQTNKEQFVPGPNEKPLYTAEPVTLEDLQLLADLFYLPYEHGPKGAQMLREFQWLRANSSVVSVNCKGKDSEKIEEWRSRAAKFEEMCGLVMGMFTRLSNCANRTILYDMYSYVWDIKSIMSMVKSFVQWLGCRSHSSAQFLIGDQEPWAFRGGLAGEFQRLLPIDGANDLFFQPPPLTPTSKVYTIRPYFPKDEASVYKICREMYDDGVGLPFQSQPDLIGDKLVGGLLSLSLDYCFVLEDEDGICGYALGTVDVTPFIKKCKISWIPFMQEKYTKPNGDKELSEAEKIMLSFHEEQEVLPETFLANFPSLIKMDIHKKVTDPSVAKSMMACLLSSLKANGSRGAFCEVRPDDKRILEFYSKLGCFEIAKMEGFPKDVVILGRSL

[2] = biological target: T1, Protein O-GlcNAcase (Homo sapiens); assay: Inhibition of OGA in human SH-SY5Y cells assessed as increase in protein O-GlcNAcylation level after 24 hrs by Western blot analysis; assay type: cell-based
[3] = biological target: T1, Protein O-GlcNAcase (Homo sapiens); assay: Inhibition of OGA in human SH-SY5Y cells assessed as increase in protein O-GlcNAcylation level at 10 uM after 24 hrs by Western blot analysis; assay type: cell-based
[4] = biological target: T2, Beta-hexosaminidase subunit alpha (Homo sapiens, UniProt P06865); assay: Inhibition of human Hex A using 4-MU-GlcNAc as substrate after 10 mins by Lineweaver Burk plot analysis
T2 sequence (P06865 whole entry): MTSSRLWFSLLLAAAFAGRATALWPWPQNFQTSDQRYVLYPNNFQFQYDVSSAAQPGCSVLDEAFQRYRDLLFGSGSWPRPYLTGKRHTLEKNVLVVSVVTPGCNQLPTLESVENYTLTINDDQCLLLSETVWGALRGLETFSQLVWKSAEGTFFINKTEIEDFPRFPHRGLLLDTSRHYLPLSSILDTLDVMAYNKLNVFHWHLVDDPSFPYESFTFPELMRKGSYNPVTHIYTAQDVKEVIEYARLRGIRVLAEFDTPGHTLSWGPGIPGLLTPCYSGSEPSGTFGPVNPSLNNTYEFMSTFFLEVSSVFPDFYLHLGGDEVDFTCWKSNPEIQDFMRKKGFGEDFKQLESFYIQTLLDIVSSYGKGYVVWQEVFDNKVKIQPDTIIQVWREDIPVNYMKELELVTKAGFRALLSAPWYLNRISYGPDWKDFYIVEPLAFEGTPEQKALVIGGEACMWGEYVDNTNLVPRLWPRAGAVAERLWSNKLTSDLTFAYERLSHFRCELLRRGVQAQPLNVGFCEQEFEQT

[5] = biological target: T3, Protein O-GlcNAcase (Homo sapiens, UniProt O60502); assay: Competitive inhibition of human OGA using 4-MU-GlcNAc as substrate after 10 mins by Lineweaver Burk plot analysis
T3 sequence (O60502 whole entry): T1 sequence (whole entry)

Row | Compound | inhibition [1] [%] | other results
1 | CC(C)(C)CCc1cn2c(n1)[C@H](O)[C@@H](O)[C@H](O)[C@H]2CO | 0.4 | –
2 | O=C(CCc1cn2c(n1)[C@H](O)[C@@H](O)[C@H](O)[C@H]2CO)Nc1ccccc1 | 17.1 | –
3 | CCCCCCCCc1cn2c(n1)[C@H](O)[C@@H](O)[C@H](O)[C@H]2CO | 15.3 | –
4 | OC[C@@H]1[C@@H](O)[C@H](O)[C@@H](O)c2nc(CCc3ccc(C4CCCCC4)cc3)cn21 | 56.6 | –
5 | CC(C)(CCc1cn2c(n1)[C@H](O)[C@@H](O)[C@H](O)[C@H]2CO)C(=O)Nc1ccccc1 | 2.2 | –
6 | OC[C@@H]1[C@@H](O)[C@H](O)[C@@H](O)c2nccn21 | 6.2 | –

Continued, in another order:

Row | inhibition [1] [%] | Compound | other results
7 | 54.1 | COc1ccc(CCc2cn3c(n2)[C@H](O)[C@@H](O)[C@H](O)[C@H]3CO)cc1 | –
8 | 28.3 | Cc1ccc(CCc2cn3c(n2)[C@H](O)[C@@H](O)[C@H](O)[C@H]3CO)cc1 | –
9 | 84.8 | OC[C@@H]1[C@@H](O)[C@H](O)[C@@H](O)c2nc(CCc3ccc(-c4ccccc4)cc3)cn21 | inhibition [2]: Dose-dependent effect; inhibition [3]: Active; Ki [4]: 163 µM; Ki [5]: 5.9 µM
10 | 26.1 | OC[C@@H]1[C@@H](O)[C@H](O)[C@@H](O)c2nc(CCc3ccc(F)cc3)cn21 | –
11 | 6.8 | OC[C@@H]1[C@@H](O)[C@H](O)[C@@H](O)c2nc(CCc3ccccc3)cn21 | –
